One experiment deals with Mouse PKC α (Mus musculus, UniProt P20444). In words: biochemical. Format: binding.
A further experiment has as its target PKCβII (Homo sapiens, UniProt P05771). In words: Down regulation of PKCβII in U937 cells. Format: cell-based.
For another experiment, the target named is PKCδ (Homo sapiens, UniProt Q05655). The experiment can be described thus: Down regulation of PKCδ in U937 cells. Format: cell-based.
Another experiment deals with T1, PKCε (Homo sapiens, UniProt Q02156).
T1 sequence (Q02156 1-737): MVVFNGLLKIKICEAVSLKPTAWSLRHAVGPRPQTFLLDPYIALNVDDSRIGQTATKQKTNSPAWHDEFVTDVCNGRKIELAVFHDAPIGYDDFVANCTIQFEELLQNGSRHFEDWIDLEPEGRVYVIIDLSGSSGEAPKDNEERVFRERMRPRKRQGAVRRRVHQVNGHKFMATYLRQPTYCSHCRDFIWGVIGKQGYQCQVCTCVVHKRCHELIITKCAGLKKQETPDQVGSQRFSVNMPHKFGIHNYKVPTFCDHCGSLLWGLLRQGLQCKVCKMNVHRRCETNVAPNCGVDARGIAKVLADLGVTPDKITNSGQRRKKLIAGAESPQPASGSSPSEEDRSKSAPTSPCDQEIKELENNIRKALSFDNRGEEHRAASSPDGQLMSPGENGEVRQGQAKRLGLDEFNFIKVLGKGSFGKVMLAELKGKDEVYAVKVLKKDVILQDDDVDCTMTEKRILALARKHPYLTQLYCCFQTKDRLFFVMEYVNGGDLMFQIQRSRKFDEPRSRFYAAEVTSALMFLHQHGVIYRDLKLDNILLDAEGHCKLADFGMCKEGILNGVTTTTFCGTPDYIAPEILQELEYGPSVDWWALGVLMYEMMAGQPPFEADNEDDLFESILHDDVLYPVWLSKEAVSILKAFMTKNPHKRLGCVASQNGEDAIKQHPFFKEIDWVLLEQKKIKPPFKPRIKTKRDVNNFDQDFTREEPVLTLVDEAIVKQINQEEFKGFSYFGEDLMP
In words: Down regulation of PKCε in U937 cells. The experiment is classed as cell-based. Conditions: data not shown.

Experiment [1] has as its system U937 leukemia cells. Format: cell-based, human. The following applies: 60 hours; for suppression of growth inhibition induced by PMA: co-administered with PMA.
Experiment [2] concerns U937 leukemia cells. Format: cell-based, human. The following applies: 60 hours; for cell attachment: U937 cells; for inhibition of attachment induced by PMA: co-administered with PMA.
The next experiment relates to U937 cells. The experiment is classed as cell-based, human. Conditions: araC 1 μM, 24 h; bryostatin 1 100 nM, bryostatin 7 1000 nM.
Another experiment addresses mouse GFP-PKCδ (Mus musculus, UniProt P28867). In words: Translocation of mouse GFP-PKCδ in LNCaP cells. Format: cell-based. Conditions: 1000 nM PMA, 1000 nM bryostatin 1, 3000 nM bryostatin 7.
The target in a further experiment is human GFP-PKCδ (Homo sapiens, UniProt Q05655). The experiment can be described thus: Translocation of human GFP-PKCδ in LNCaP cells. The experiment is classed as cell-based. The following applies: 1000 nM PMA, 1000 nM bryostatin 1, 3000 nM bryostatin 7.
human GFP-PKCδ, sequence (Q05655 whole entry): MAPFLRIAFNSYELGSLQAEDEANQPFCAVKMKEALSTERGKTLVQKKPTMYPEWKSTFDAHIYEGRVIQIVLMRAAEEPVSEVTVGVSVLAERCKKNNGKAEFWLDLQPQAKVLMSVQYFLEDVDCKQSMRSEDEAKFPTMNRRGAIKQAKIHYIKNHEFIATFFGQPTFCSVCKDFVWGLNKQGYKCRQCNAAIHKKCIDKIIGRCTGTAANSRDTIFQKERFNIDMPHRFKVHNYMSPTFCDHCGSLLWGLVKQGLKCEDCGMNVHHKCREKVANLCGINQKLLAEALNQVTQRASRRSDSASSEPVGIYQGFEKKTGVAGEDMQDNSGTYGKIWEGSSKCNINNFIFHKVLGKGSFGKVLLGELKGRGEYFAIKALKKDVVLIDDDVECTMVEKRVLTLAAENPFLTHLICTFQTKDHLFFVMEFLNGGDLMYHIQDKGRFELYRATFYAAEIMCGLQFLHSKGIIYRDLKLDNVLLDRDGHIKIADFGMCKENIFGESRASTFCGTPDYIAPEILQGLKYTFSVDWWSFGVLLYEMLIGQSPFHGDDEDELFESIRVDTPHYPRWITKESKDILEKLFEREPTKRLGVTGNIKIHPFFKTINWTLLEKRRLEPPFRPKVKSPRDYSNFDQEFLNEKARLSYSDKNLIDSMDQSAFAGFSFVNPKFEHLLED
The next experiment deals with T2, human YFP-PKCε (Homo sapiens, UniProt Q02156).
T2 sequence (Q02156 1-737): T1 sequence (Q02156 1-737)
In words: Translocation of human YFP-PKCε in LNCaP cells. The experiment is classed as cell-based.

Another experiment concerns the target human GFP-PKCα (Homo sapiens, UniProt P17252). The experiment can be described thus: Translocation of human GFP-PKCα in CHO cells. The experiment is classed as cell-based.
Experiment [3] relates to PKC signaling in LNCaP cells. In words: PKC and downstream signaling in LNCaP cells. Format: cell-based, human. The following applies: 60 min.
Experiment [4] relates to phorbol ester responsive genes in LNCaP cells. In words: Gene induction in LNCaP cells. Format: cell-based, human. Conditions: 6 hours, 1000 nM.
Experiment [5] concerns TNFα secretion in LNCaP cells. The experiment can be described thus: TNFα secretion by LNCaP cells. Conditions: for inhibition of secretion of TNFα induced by PMA: 30 nM PMA; for secretion of TNFα: 24 h.
The test system of experiment [6] is LNCaP human prostate cancer cells. The experiment can be described thus: Proliferation of LNCaP cells. The following applies: for inhibition of proliferation of LNCaP cells: 36 h; for block of inhibition of proliferation by PMA: PMA 30 nM co-administered.
Experiment [7] relates to PKC isoforms and PKD1 in LNCaP cells. The experiment can be described thus: Subcellular fractionation of LNCaP cells. The experiment is classed as cell-based, human. The following applies: 60 min.
Experiment [8] relates to human PKC isoforms α, βII, δ, and ε.
The test system of a further experiment is PKC. Conditions: cited from earlier work.
A further experiment has as its system human platelets. Conditions: cited from earlier work.
Experiment [9] deals with TNFα secretion in U937 cells. The experiment can be described thus: TNF-alpha secretion by U937 cells. The experiment is classed as cell-based, human.
Another experiment concerns tumor promotion. Conditions: cited from earlier work.
The mark [10] stands for this setting: read-out: EC50 for down regulation of PKCβII, 24 hours.

“Also recorded” adds a separate entry of the source. Like-named read-outs stand apart in the source and are kept apart here.

PKCδ, sequence (Q05655 whole entry): as above
PKCβII, sequence (P05771 1-673 isoform P05771-2): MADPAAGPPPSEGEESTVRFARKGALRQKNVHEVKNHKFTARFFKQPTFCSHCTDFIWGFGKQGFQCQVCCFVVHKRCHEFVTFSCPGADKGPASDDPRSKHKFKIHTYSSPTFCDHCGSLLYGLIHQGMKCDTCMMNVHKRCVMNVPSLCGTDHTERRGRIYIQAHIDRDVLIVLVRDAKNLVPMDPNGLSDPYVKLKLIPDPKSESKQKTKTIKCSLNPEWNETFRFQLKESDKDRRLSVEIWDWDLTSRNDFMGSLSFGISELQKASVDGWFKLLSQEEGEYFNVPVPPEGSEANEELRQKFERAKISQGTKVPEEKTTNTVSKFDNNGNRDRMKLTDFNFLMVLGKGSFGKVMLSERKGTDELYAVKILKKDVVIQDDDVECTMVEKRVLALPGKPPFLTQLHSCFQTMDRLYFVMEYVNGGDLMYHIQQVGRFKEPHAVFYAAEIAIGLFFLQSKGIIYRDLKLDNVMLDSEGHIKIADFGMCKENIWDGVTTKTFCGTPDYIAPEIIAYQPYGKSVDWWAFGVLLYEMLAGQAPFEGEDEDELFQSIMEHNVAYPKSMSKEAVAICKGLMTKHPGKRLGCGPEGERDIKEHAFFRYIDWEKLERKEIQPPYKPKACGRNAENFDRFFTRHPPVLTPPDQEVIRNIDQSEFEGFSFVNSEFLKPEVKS
mouse GFP-PKCδ, sequence (P28867 whole entry): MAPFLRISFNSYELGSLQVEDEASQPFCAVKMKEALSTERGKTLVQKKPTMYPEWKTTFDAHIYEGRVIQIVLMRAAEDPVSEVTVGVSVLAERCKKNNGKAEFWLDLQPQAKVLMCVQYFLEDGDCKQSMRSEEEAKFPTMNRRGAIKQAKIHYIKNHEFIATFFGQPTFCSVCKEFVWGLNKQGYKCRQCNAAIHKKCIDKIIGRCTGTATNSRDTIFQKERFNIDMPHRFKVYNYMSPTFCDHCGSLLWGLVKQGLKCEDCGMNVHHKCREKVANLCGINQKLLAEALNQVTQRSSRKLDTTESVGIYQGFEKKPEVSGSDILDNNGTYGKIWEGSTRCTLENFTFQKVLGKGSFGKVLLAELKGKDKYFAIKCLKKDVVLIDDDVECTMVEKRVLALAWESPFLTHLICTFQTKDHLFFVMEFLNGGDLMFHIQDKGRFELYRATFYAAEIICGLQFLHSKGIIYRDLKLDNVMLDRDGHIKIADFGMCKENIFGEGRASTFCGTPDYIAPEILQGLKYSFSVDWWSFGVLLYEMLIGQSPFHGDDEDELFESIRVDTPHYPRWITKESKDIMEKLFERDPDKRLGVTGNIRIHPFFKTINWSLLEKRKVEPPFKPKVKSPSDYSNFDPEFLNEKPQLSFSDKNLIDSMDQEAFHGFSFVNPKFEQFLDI

With `CCC/C=C/C=C/C(=O)O[C@H]1/C(=C/C(=O)OC)C[C@H]2C[C@H]([C@@H](C)O)OC(=O)C[C@H](O)C[C@@H]3C[C@H](OC(C)=O)C(C)(C)[C@](O)(C[C@@H]4C/C(=C/C(=O)OC)C[C@H](/C=C/C(C)(C)[C@]1(O)O2)O4)O3` [Bryostatin 1, bryostatin 1], affinity at Mouse PKC α was put at a Ki of 0.48 ± 0.03 nM. Moreover, the DC50 on PKCβII (setting [10]) is 0.31 ± 0.005 nM. Besides, at PKCδ (24 hours), the “down regulation of PKCδ” value is listed as “down regulation with a biphasic dose response curve”. Also, the “down regulation of PKCε” value at PKCε is recorded as “little down regulation”. In the experiment with U937 leukemia cells [1], the “inhibition of U937 cell proliferation” value is “very limited, biphasic inhibition” and the “suppression of growth inhibition induced by PMA” value is reported as “able to suppress the growth inhibition induced by PMA”. In the experiment with U937 leukemia cells [2], the cell attachment result is given as “much reduced level of cell attachment compared to that induced by PMA” and the “inhibition of attachment induced by PMA” value is “able to inhibit the attachment induced by PMA”. The “synergy with araC for loss of mitochondrial membrane potential” value with U937 cells is “able to synergize with araC”. Also, the “translocation pattern of mouse GFP-PKCδ” value at mouse GFP-PKCδ is “only to the nuclear membrane and internal membranes”. For the same compound, on human GFP-PKCδ, the “translocation pattern of human GFP-PKCδ” value is recorded as “some initial plasma membrane translocation”. The “translocation pattern of human YFP-PKCε” value at human YFP-PKCε (LNCaP cells, 1000 nM) is given as “resembled that with PMA, albeit less extensive”. Besides, the “translocation pattern of human GFP-PKCα” value at human GFP-PKCα (CHO cells, 1000 nM) was “some translocation of the human PKCα to the plasma membrane but with most forming a thick ring around the nucleus”. Further, in experiment [3], the “PKCδ phosphorylation on Y311” value is listed as “inability to induce efficient PKCδ phosphorylation on Y311” and the “induction of PKCδ phosphorylation at S299” value is “closely similar”. Also, the “changes in levels of mRNA expression” value in [4] is “generally similar for bryostatin 1 and bryostatin 7 and less than they were for PMA”. In experiment [5], the “inhibition of secretion of TNFα induced by PMA” value was “inhibits the secretion of TNFα induced by PMA” and the “secretion of TNFα” value is on record as “minimal secretion of TNFα”. For the same compound, in experiment [6], the “inhibition of proliferation of LNCaP cells” value (“inhibition … of LNCaP cells” below) is listed as “little inhibitory effect” and the “block of inhibition of proliferation by PMA” value is on record as “prevents the inhibition by PMA”.

Take `COC(=O)/C=C1/C[C@H]2C[C@]3(O)O[C@H](C[C@@H](O)CC(=O)O[C@@H]([C@@H](C)O)C[C@@H]4C/C(=C\C(=O)OC)[C@H](OC(C)=O)[C@@](O)(O4)C(C)(C)/C=C/[C@@H](C1)O2)C[C@H](OC(C)=O)C3(C)C` [Bryostatin 7, bryostatin 7]: the affinity on Mouse PKC α corresponds to a Ki of 0.26 ± 0.06 nM. The “potency for PKCβII down regulation, fold weaker than bryostatin 1” value at PKCβII (24 hours) is listed as 3 fold. Moreover, the EC50 on PKCβII (setting [10]) was 0.97 ± 0.08 nM. For the same compound, on PKCδ (24 hours), the “down regulation of PKCδ” value is “resembled bryostatin 1” and the “potency for PKCδ down regulation, fold weaker than bryostatin 1” value was “approximately 3 fold”. The concentration giving a half-maximal response (EC50) at PKCδ (read-out: EC50 for down regulation of PKCδ, 24 hours) was determined as 0.22 ± 0.03 nM. In addition, in the experiment with U937 leukemia cells [1], the “inhibition of U937 cell proliferation” value is “very limited, biphasic inhibition; also recorded: inhibited proliferation slightly more than did bryostatin 1” and the “suppression of growth inhibition induced by PMA” value is “able to suppress the growth inhibition induced by PMA”. Further, in the experiment on U937 leukemia cells [2], the cell attachment result was “much reduced level of cell attachment compared to that induced by PMA; also recorded: induced slightly more attachment than did bryostatin 1” and the “inhibition of attachment induced by PMA” value is reported as “able to inhibit the attachment induced by PMA”. Also, in the experiment on U937 cells, the “synergy with araC for loss of mitochondrial membrane potential” value is listed as “able to synergize with araC”. Also, at mouse GFP-PKCδ, the “translocation pattern of mouse GFP-PKCδ” value is “only to the nuclear membrane and internal membranes”. For the same compound, the “translocation pattern of human GFP-PKCδ” value at human GFP-PKCδ was “only caused translocation of the human GFP-PKCδ to nuclear and internal membranes”. Also, at human YFP-PKCε, the “translocation pattern of human YFP-PKCε” value is “no plasma membrane translocation”. The “translocation pattern of human GFP-PKCα” value on human GFP-PKCα is recorded as “pattern of translocation similar to that of bryostatin 1”. In experiment [7], the “PKCδ in the nuclear enriched fraction” value is listed as “resembled bryostatin 1 for this response” and the “pPKD1 in the nuclear fraction” value is recorded as “behaved similarly to bryostatin 1”. In addition, in experiment [3], the “PKCδ phosphorylation on Y311” value is “inability to induce efficient PKCδ phosphorylation on Y311”, the “induction of PKCδ phosphorylation at S299” value is on record as “closely similar”, the “induction of cFos or EGR1” value is “reduced induction of cFos or EGR1 at 60 min compared to bryostatin 1” and the “phosphorylation of PKD1” value is “somewhat less phosphorylation of PKD1 than did bryostatin 1”. The “changes in levels of mRNA expression” value in experiment [4] is “generally similar for bryostatin 1 and bryostatin 7 and less than they were for PMA”. Moreover, the “selectivity among PKC isoforms” value in experiment [8] is “little selectivity among these PKC isoforms”. Besides, in the experiment on PKC, the “binding affinity towards PKC among bryostatins” value is reported as “highest binding affinity towards PKC”. The “aggregation of human platelets” value in the experiment on human platelets is on record as “mimics the activity of the phorbol ester PMA in inducing aggregation of human platelets”. For the same compound, in experiment [5], the “inhibition of secretion of TNFα induced by PMA” value is reported as “inhibits the secretion of TNFα induced by PMA” and the “secretion of TNFα” value is listed as “minimal secretion of TNFα”. In experiment [6], the “inhibition … of LNCaP cells” value was “fails to inhibit proliferation” and the “block of inhibition of proliferation by PMA” value is on record as “able to block the inhibition of proliferation by PMA”.

As for `CCCCCCCCCCCCCC(=O)O[C@@H]1[C@@H](C)[C@@]2(O)[C@@H](C=C(CO)C[C@]3(O)C(=O)C(C)=C[C@@H]23)[C@@H]2C(C)(C)[C@]12OC(C)=O` [PMA], the “level of down regulation of PKCβII” value at PKCβII (24 hours) is listed as “less down regulation”. In addition, the “down regulation of PKCδ” value on PKCδ (24 hours) is recorded as “little down regulation”. Also, the “down regulation of PKCε” value at PKCε is “little down regulation”. Moreover, the TNFα secretion entry in experiment [9] is given as “higher level of secretion”. In addition, the “translocation pattern of mouse GFP-PKCδ” value at mouse GFP-PKCδ was “initial translocation to the plasma membrane”. In addition, at human YFP-PKCε (LNCaP cells, 1000 nM), the “translocation pattern of human YFP-PKCε” value was “rapid clearing of the cytoplasm with translocation of PKCε to the plasma membrane”. Also, at human GFP-PKCα (CHO cells, 1000 nM), the “translocation pattern of human GFP-PKCα” value is recorded as “slow but clear plasma membrane translocation”. Also, in experiment [7], the “PKCδ in the nuclear enriched fraction” value was “increase in PKCδ in the nuclear enriched fraction” and the “pPKD1 in the nuclear fraction” value is given as “substantial accumulation in the nuclear fraction”. Also, the tumor promoting activity result in the experiment on tumor promotion is given as “tumor promoter”. Also, in experiment [6], the “inhibition … of LNCaP cells” value is given as “inhibits cellular proliferation”.

As to `CC(C)[C@H]1C(=O)N[C@H](CO)Cc2c[nH]c3cccc(c23)N1C` [indolactam V], the tumor promoting activity entry in the experiment on tumor promotion is reported as “tumor promoters”.

On to `CC(=O)O[C@@]12C[C@@H](C)[C@@]3(O)[C@@H](C=C(CO)C[C@]4(O)C(=O)C(C)=C[C@@H]34)[C@@H]1C2(C)C` [prostratin], for which the tumor promoting activity result with tumor promotion is reported as “inhibits tumor promotion”.

By Ki is commonly meant a measure of affinity in units of concentration, obtained from inhibition or displacement. A high value points to weaker binding. A word on the EC50: it is the concentration giving half of the maximal effect.

The record behind these values is article PMC3631439 (ACS chemical biology, 2013).
